# Reference: patent US4517007A, “Phosphoroamide urease inhibitors and urease inhibited urea based fertilizer compositions” (Allied Corporation, priority 1983, dated 1985)
# Test system: urease
# Assay: Urease Inhibition Efficacy Test in soil (urea remaining after incubation)
# Assay type: biochemical
# Details: 800 micrograms test compound and 42.8 mg urea on 20 g air-dry Cazenovia silt loam, pH 7.0; incubated at 25° C. for three days; run in triplicate
# Description: Efficacy tests were conducted to evaluate the efficacy of representative compounds as urease inhibitors. The inhibition tests were run in a New York soil (Cazenovia silt loam, pH 7.0). Evaluations (run in triplicate) consisted of applying 800 micrograms of the test compound in 5 mL of water and 42.8 mg of urea in 1 mL of water to 20 g of air-dry soil in a glass bottle. The bottle was capped with perforated aluminum foil and incubated at 25° C. for three days prior to extraction with 100 mL of a 2M KCl solution containing 0.5 mg of phenylmercuric acetate. The extracts were then analyzed for remaining urea using an autoanalyzer. Percent inhibition was calculated as [formula] where A is urea recovered from an unincubated sample (urea added to soil and immediately extracted); B is urea recovered from an inhibited sample; and C is urea recovered from the control (uninhibited sample).
row,SMILES,% Inhibition 40 micrograms per gram Cazenovia soil
1,NP1(=O)Oc2ccccc2O1 [Experiment 1],54%
2,NP(N)(=O)Oc1cccc2c1OP(N)(=O)O2 (stereo not drawn) [Experiment 2],5%
3,NP(N)(=O)Oc1ccc2c(c1)OP(N)(=O)O2 (stereo not drawn) [Experiment 3],21%
